Assay results taken from patent US20170158671A1, “PYRIMIDINE COMPOSITIONS, ULTRA PURE COMPOSITIONS AND SALTS THEREOF, METHODS OF MAKING THE SAME, AND METHODS OF USING THE SAME FOR TREATING HISTAMINE H4 RECEPTOR (H4) MEDIATED DISEASES AND CONDITIONS” (Ziarco Pharma Ltd., priority 2015, published 2017).

Experiments:
[1] = Salt screen: HT-XRPD after accelerated aging conditions; assay type: physicochemical; conditions: solid form by HT-XRPD after 40° C., 75% RH for two days, code+number = crystalline salt polymorph, 0 = crystalline counter ion itself
Experimental: XRPD patterns were obtained using the Crystallics T2 high-throughput XRPD set-up. The plates were mounted on a Bruker General Area Detector Diffraction System (GADDS) equipped with a VÅNTEC-500 gas area detector corrected for intensity and geometric variations. The calibration of the measurement accuracy (peaks position) was performed using NIST SRM1976 standard (Corundum).
Data collection was carried out at room temperature using monochromatic CuKα radiation in the 2θ region between 1.5° and 41.5°, which is the most distinctive part of the XRPD pattern. The diffraction pattern of each well was collected in two 2θ ranges (1.5°≦2θ≦21.5° for the first frame, and 19.5°≦2θ≦41.5° for the second) with an exposure time of 90 s for each frame. No background subtraction or curve smoothing was applied to the XRPD patterns.
Approximately 175 mg of N^4-(cyclopropylmethyl)-6-[(3R)-3-(methylamino)pyrrolidin-1-yl]pyrimidine-2,4-diamine in 1-Butanol and Dichloromethane were combined with a slight molar excess of either solid or liquid counter ion. Samples were incubated at RT. After 5 days the solids were collected, dried under vacuum and analyzed by HT-XRPD (XRPD 1).
Subsequently, the solids were exposed to accelerated aging conditions (40° C., 75% RH) for two days and re-analyzed by HT-XRPD (XRPD 2). Crystalline salts (polymorphs) are indicated with the abbreviated counter ion code and a number (1, 2, etc.). The number zero (0) indicates the crystalline counter ion itself.

[2] = Dynamic vapor sorption (DVS) analysis; assay type: physicochemical; conditions: 25° C.
Experimental: Moisture sorption isotherms were collected on a DVS-1 system from Surface Measurement Systems (London, UK). Typical sample size is between 5 and 10 mg of solid material. The relative humidity was cycled between 40% to 0% (desorption), up to 95% (sorption), back to 0% RH (desorption) and up to 95% RH (sorption) in steps of 10% at a constant temperature of 25° C. with an initial stabilizing step at 40% RH for 6 hours.
(FIG. 9) The relative humidity (RH) was cycled between 40% to 0% (desorption), up to 95% (sorption) in steps of 10%. During the desorption, the dehydration step occurs when the RH goes below 10% RH. Water uptake is observed in between 0-20% RH (1.9% mass uptake) and 20-30% (total mass uptake 6.9%).

[3] = Salt screen: HT-XRPD after accelerated aging conditions; assay type: physicochemical; conditions: 14 counter ions tested; only hydrochloric acid gave such a salt
[4] = Phase 1 trials, single and multiple ascending doses; assay type: in vivo, human
Experimental: In phase 1 trials, 62 subjects were treated with ZPL-389.

[5] = tested on: adult subjects with moderate to severe atopic dermatitis; assay: Phase 2a study in moderate to severe atopic dermatitis; assay type: in vivo, human
Experimental: Following the phase 1 trials, a phase 2a trial was conducted to evaluate the efficacy of 8 weeks of treatment with 30 mg ZPL-389 administered once daily in adult subject with moderate to severe atopic dermatitis. The study was also designed to assess the safety and tolerability of ZPL-389 in adult subjects with moderate to severe atopic dermatitis.
This study was a randomized, double blind, placebo controlled, parallel group study of subjects having a pruritus Numerical Rating Scale (NRS) of ≧5 (0-10 scale), an Investigator's Global Assessment (IGA) ≧3 (0-3 scale), and moderate-severe AD Eczema Area and Severity Index (EASI) ≧12 and ≦48 (0-72 scale). In addition, subjective patient reported outcome instruments include: Ziarco Itch Diary (Electronic) Pruritus; 5D Pruritus Scale; Dermatology Life Quality Index (DLQI); and Patient Global Impression of Change (PGIG).
Each subject (aged 18-65 years) had one or more screening visits to confirm suitability to enter the study. 98 subjects with moderate to severe atopic dermatitis were randomized 2:1 to receive orally either 30 mg ZPL-389 or placebo once daily for eight weeks (56 days).
Efficacy endpoints for the trial include the following: • change from baseline in NRS for pruritus (worst itch) over 24 hours; • change from baseline in daytime NRS for pruritus (worst itch); • change from baseline in night time NRS for pruritus (worst itch); • change from baseline in NRS for sleep disturbance; • change from baseline in duration of itching; • change from baseline in verbal rating score for pruritus; • change from baseline in EASI score; • change from baseline in SCORAD score; • IGA score; • amount of rescue medication use; and/or • PGIC.

mild asthmatics = conditions: 36 mg in two single doses given 12 hours apart, oral; cited from earlier work
[6] = 30 mg orally once daily vs placebo
[7] = 30 mg orally once daily, 8 weeks

| Compound | XRPD 2 ([1]; 1-Butanol) | XRPD 2 ([1]; Dichloromethane) | other results |
| --- | --- | --- | --- |
| O=C(O)C(O)c1ccccc1 (racemic) [DL-Mandelic acid] | Amorphous | Amorphous |  |
| CC(=O)Nc1ccc(C(=O)O)cc1 [4-acetamido-Benzoic acid] | ABen1 + ABen0 | ABen1 + ABen0 |  |
| O=C(O)[C@H](O)[C@@H](O)C(=O)O [(+)-L-Tartaric acid] | Amorphous | Amorphous |  |
| CC(=O)O [Acetic acid] | Amorphous | Amorphous |  |
| O=S(=O)(O)c1ccccc1 [Benzenesulfonic acid] | Amorphous | Amorphous |  |
| O=C(O)c1ccccc1 [Benzoic acid] | Ben1 + Ben2 plus | Ben1 + Ben2 plus |  |
| O=C(O)CC(O)(CC(=O)O)C(=O)O [Citric acid] | Amorphous | Amorphous |  |
| O=C[C@H](O)[C@@H](O)[C@H](O)[C@H](O)C(=O)O [D-Glucuronic acid] | Amorphous | Amorphous |  |
| O=S(=O)(O)CCS(=O)(=O)O [Ethane-1,2-disulfonic acid] | Eds1 + Eds2 | Eds1 |  |
| CCS(=O)(=O)O [Ethanesulfonic acid] | Amorphous | Amorphous |  |
| CN[C@@H]1CCN(c2cc(NCC3CC3)nc(N)n2)C1.O.O.O=C(O)C(O)C(O)C(=O)O [Example 4, N^4-(cyclopropylmethyl)-6-[(3R)-3-(methylamino)pyrrolidin-1-yl]pyrimidine-2,4-diamine tartrate dihydrate] |  |  | RH at which the dehydration step occurs during desorption ([2]; DVS desorption): below 10 % RH; Water uptake (mass uptake) between 0-20% RH ([2]; DVS sorption): 1.9%; total mass uptake at 20-30% RH ([2]; DVS sorption): 6.9%; weight between 30-90% RH ([2]; DVS): remains stable |
| CN[C@@H]1CCN(c2cc(NCC3CC3)nc(N)n2)C1.Cl.Cl.O [Example 8, N^4-(cyclopropylmethyl)-6-[(3R)-3-(methylamino)pyrrolidin-1-yl]pyrimidine-2,4-diamine di-hydrochloride hydrate] |  |  | stability of two to one stoichiometric salt [3]: stable |
| O=C(O)/C=C/C(=O)O [Fumaric acid] | Amorphous | Fum0 + Fum3 |  |
| O=C(O)c1cc(O)ccc1O [Gentisic acid] | Gen2 | Gen2 |  |
| O=C(O)[C@H](O)[C@@H](O)[C@H](O)[C@H](O)CO [Gluconic acid] | Amorphous | Amorphous |  |
| N[C@@H](CCC(=O)O)C(=O)O [Glutamic acid] | Gltm0 | Amorphous |  |
| O=C(O)CCCC(=O)O [Glutaric acid] | Glut1 | Glut1 |  |
| Cl [Hydrochloric acid] | Amorphous | Amorphous |  |
| O=S(=O)(O)O [Sulfuric acid] | Amorphous | Amorphous |  |
| CN[C@@H]1CCN(c2cc(NCC3CC3)nc(N)n2)C1 [ZPL-389, N^4-(cyclopropylmethyl)-6-[(3R)-3-(methylamino)pyrrolidin-1-yl]pyrimidine-2,4-diamine] |  |  | absorption ([4]; phase 1 trials): rapidly absorbed; pharmacokinetics (dose proportionality) ([4]; phase 1 trials): dose-proportional; majority of observed adverse events ([4]; single ascending doses 0.01-48 mg, multiple ascending doses 5, 15, 50 mg once daily for 14 days): mild, transient, and non-dose related; tolerability ([4]; single ascending doses 0.01-48 mg, multiple ascending doses 5, 15, 50 mg once daily for 14 days, 62 subjects): safely tolerated; IGA remission odds ratio [5, 6]: 2.71; IGA response odds ratio [5, 6]: 2.51; Treatment Emergent Adverse Events (TEAE) between ZPL-389 and placebo [5, 7]: no differences; inflammation compared to placebo (EASI, SCORAD, BSA) [5, 7]: clinically and statistically significant decrease; subjects with clear or almost clear skin [5, 7]: 19%; tolerability / safety profile ([5]; 30 mg orally once daily, 8 weeks, comparable to placebo): well tolerated; rescue medication use ([5]; 30 mg orally once daily, 8 weeks, vs placebo): lower; IGA reduced by ([5]; 30 mg orally once daily, week 8, placebo 25%): 36%; SCORAD reduced by ([5]; 30 mg orally once daily, week 8, placebo 26%, p=0.004): 41%; EASI reduced by ([5]; 30 mg orally once daily, week 8, placebo 27%, p=0.01): 50%; BSA (Body Surface Area) affected by inflammation change from baseline ([5]; 30 mg orally once daily, week 8, placebo −12%, p=0.044): −18%; pruritus ([5]; 30 mg orally once daily, statistically significant compared to baseline): markedly reduced; efficacy in mild asthma (mild asthmatics): no efficacy was observed |
| (−)-L-Malic acid | Amorphous | Amorphous |  |

Further lines, with some results ahead:

| XRPD 2 ([1]; 1-Butanol) | XRPD 2 ([1]; Dichloromethane) | Compound | other results |
| --- | --- | --- | --- |
| Amorphous | Amorphous | O=C(O)CNC(=O)c1ccccc1 [Hippuric acid] |  |
| Amorphous | Amorphous | Br [Hydrobromic acid] |  |
| Amorphous | Amorphous | O=C1O[C@H]([C@@H](O)CO)C(O)=C1O [L-Ascorbic acid] |  |
| Asp0 | Amorphous | N[C@@H](CC(=O)O)C(=O)O [L-Aspartic acid] |  |
| Amorphous | Amorphous | CC(O)C(=O)O (stereo not drawn) [Lactic acid] |  |
| Amorphous | Amorphous | O=C(O)/C=C\C(=O)O [Maleic acid] |  |
| Amorphous | Amorphous | CS(=O)(=O)O [Methanesulfonic acid] |  |
| Nap1 + Nap0 | Amorphous | O=S(=O)(O)c1ccc2ccccc2c1 [Naphtalene-2-sulfonic acid] |  |
| Oxa3 | Oxa3 | O=C(O)C(=O)O [Oxalic acid] |  |
| Pho2 plus | Pho3 | O=P(O)(O)O [Phosphoric acid] |  |
| Sal1 plus | Amorphous | O=C(O)c1ccccc1O [Salicylic acid] |  |
| Ste0 + Ste1 | Ste0 + Ste1 | CCCCCCCCCCCCCCCCCC(=O)O [Stearic acid] |  |
| Amorphous | Amorphous | Cc1ccc(S(=O)(=O)O)cc1 [p-Toluenesulfonic acid] |  |
